Data taken from PMC11851430, “Workflow for E3 Ligase Ligand Validation for PROTAC Development” (ACS Chemical Biology, 2025).

Legend:
[1] = biological target: T1, RIOK2A (Homo sapiens, UniProt Q9BVS4); test: DSF assay; type: binding; details: 20 µM compound
T1 construct: purchased in-house DSF panel (SGC-style construct names; the trailing A/B is a construct suffix)

[2] = biological target: T2, MAP2K6A (Homo sapiens, UniProt P52564); test: DSF assay; type: binding; details: 20 µM compound
T2 construct: purchased in-house DSF panel (SGC-style construct names; the trailing A/B is a construct suffix)
T2 sequence (P52564 1-334): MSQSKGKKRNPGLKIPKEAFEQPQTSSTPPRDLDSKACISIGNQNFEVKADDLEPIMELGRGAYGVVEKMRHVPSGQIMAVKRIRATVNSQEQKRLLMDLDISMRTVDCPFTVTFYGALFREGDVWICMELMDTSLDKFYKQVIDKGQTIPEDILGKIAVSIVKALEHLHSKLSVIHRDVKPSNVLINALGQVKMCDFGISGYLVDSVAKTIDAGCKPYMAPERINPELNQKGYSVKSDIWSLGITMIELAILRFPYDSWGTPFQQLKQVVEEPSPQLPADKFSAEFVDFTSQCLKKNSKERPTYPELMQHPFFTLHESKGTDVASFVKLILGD

[3] = biological target: T3, EPHB3A (Homo sapiens, UniProt P54753); test: DSF assay; type: binding; details: 20 µM compound
T3 construct: purchased in-house DSF panel (SGC-style construct names; the trailing A/B is a construct suffix)
T3 sequence (P54753 633-896): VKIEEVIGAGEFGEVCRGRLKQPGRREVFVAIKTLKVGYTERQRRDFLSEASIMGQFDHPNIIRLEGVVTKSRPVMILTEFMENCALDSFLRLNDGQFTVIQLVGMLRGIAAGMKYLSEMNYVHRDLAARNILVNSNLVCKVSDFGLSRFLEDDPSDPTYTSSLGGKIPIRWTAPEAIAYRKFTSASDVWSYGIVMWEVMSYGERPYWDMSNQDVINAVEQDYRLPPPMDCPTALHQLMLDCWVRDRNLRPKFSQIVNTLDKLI

[4] = biological target: T4, PLK4A (Homo sapiens, UniProt O00444); test: DSF assay; type: binding; details: 20 µM compound
T4 construct: purchased in-house DSF panel (SGC-style construct names; the trailing A/B is a construct suffix)
T4 sequence (O00444 2-275): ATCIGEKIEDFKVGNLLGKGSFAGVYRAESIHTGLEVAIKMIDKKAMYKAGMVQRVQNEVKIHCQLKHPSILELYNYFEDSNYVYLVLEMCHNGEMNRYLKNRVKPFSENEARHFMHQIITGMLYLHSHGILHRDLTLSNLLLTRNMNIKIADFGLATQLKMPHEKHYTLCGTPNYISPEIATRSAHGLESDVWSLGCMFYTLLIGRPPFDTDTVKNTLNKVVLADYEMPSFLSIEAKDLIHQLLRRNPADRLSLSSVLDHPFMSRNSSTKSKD

[5] = biological target: T5, AURKA (Homo sapiens, UniProt O14965); test: Western blot assay; type: cell-based; set-up: endogenous in cells; host or cells: Jurkat; details: Jurkat cells, 6 h
T5 sequence (O14965 1-403): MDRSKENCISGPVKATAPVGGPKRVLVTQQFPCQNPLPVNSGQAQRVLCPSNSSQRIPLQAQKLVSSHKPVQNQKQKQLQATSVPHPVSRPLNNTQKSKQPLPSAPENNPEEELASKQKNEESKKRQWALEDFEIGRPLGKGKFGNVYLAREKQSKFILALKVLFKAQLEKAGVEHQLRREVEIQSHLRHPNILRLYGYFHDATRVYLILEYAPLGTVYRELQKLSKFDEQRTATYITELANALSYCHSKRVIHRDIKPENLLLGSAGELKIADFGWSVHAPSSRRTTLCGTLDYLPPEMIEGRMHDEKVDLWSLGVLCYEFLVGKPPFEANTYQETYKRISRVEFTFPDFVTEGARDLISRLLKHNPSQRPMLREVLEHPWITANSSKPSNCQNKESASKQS
Procedure: Two mL of Jurkat cells were seeded into 6 well plates (Greiner) at a density of 5·10 5 cells/mL.
The following day, cells were treated with compounds at according concentrations or DMSO for 6 hours and then lysed with 6 M Urea at 4 °C for 20 minutes. The lysates were centrifuged for 15 minutes at 16000 g and the supernatant was collected to perform the Western-Blot.
Protein quantification was performed using nanodrop One. The SDS samples were prepared […]
The samples were separated by a BIS-TRIS polyacrylamide gel polyacrylamide gel, 100 V for 1:45) followed by transfer to PVDF membranes (Millipore) at 350 mA for 140 minutes. The membranes were blocked using 5%wt/vol BSA (in TBS-T, 20 mM Tris-HCl, pH 7.5, 150 mM NaCl and 0.1% (vol/vol) Tween 20) at room temperature for 1 hour.
The blots were incubated with respective primary antibodies at 1:1000 dilution (Cell Signaling technologies: Aurora A (D3E4Q), ITK (2F12) and GAPDH (D4C6R)) at 4 °C overnight. The blots were washed with TBS-T thrice and incubated with 1:5000 dilution of horseradish peroxidase (HRP)-labelled respective secondary antibodies (Cell Signaling technologies, Anti- […]
The blots were washed with TBS-T thrice and then incubated with chemiluminescent HRP substrate (Bio-Rad) for 2 minutes. The blots were imaged and the signals were detected using the Amersham ImageQuant 800 (Cytiva).
Cell culture. Human MV4-11 ([…]) and human Jurkat ([…]) cells were cultured in RPMI- […]
°C in 5% CO2. Both media were supplemented with 10% FBS and 1% penicillin/streptomycin. […]

T1 sequence (Q9BVS4 whole entry): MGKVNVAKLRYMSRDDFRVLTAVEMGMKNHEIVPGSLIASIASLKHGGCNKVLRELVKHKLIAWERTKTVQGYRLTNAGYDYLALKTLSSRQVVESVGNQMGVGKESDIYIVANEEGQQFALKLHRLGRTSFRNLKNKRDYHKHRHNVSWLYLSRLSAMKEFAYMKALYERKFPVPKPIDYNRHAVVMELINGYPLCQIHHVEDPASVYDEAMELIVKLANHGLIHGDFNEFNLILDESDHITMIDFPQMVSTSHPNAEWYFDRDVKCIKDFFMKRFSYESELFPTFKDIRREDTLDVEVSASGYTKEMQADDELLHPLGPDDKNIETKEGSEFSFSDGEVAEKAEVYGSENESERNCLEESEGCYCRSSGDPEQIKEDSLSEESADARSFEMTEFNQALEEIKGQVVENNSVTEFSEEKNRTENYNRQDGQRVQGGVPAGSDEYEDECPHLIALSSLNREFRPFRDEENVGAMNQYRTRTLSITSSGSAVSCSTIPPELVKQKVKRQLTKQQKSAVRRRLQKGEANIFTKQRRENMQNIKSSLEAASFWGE

ΔTm at 20 µM [1]	ΔTm at 20 µM [2]	ΔTm at 20 µM [3]	ΔTm at 20 µM [4]	AURKA protein levels (Western blot) [5]	Structure (SMILES)
6.53 °C	8.41 °C	4.23 °C	13.2 °C	–	CCOC(=O)c1cc(Nc2cc(C3CC3)[nH]n2)nc(Nc2ccc(CC#N)cc2)n1 [compound 5]
6.13 °C	5.77 °C	6.97 °C	16.1 °C	–	CC(C)(C)OC(=O)NCCOCCOCCOCCOCCC(=O)N1CCN(c2cc(Nc3cc(C4CC4)[nH]n3)nc(Nc3ccc(CC#N)cc3)n2)CC1 [4-L]
–	–	–	–	only a weak reduction in AURKA levels	Cc1ncsc1-c1ccc(CNC(=O)[C@@H]2C[C@@H](O)CN2C(=O)[C@@H](NC(=O)CCOCCOCCOCCOCCN2CCN(c3ccc(Nc4ncc(Cl)c(Nc5ccccc5C(N)=O)n4)cc3)CC2)C(C)(C)C)cc1 [6-b]
–	–	–	–	no effect on AURKA levels	Cc1ncsc1-c1ccc(CNC(=O)[C@@H]2C[C@H](O)CN2C(=O)[C@@H](NC(=O)CCOCCOCCOCCN2CCN(c3cc(Nc4cc(C5CC5)[nH]n4)nc(Nc4ccc(CC#N)cc4)n3)CC2)C(C)(C)C)cc1 [4-a^neg]
–	–	–	–	only a weak reduction in AURKA levels	Cc1ncsc1-c1ccc(CNC(=O)[C@@H]2C[C@@H](O)CN2C(=O)[C@@H](NC(=O)CCOCCOCCOCCN2CCN(c3cc(Nc4cc(C5CC5)[nH]n4)nc(Nc4ccc(CC#N)cc4)n3)CC2)C(C)(C)C)cc1 [4-a]
–	–	–	–	no effect on AURKA levels	Cc1ncsc1-c1ccc(CNC(=O)[C@@H]2C[C@H](O)CN2C(=O)[C@@H](NC(=O)CCOCCOCCOCCOCCN2CCN(c3ccc(Nc4ncc(Cl)c(Nc5ccccc5C(N)=O)n4)cc3)CC2)C(C)(C)C)cc1 [6-b^neg]
5.03 °C	5.96 °C	2.47 °C	11.6 °C	–	CC(C)(C)OC(=O)NCCCOCCOCCOCCCNC(=O)c1cc(Nc2cc(C3CC3)[nH]n2)nc(Nc2ccc(CC#N)cc2)n1 [5-L]
